Test results published in patent US12624038B2, “Molecules and methods related to treatment of uncontrolled cellular proliferation” (ST. JUDE CHILDREN'S RESEARCH HOSPITAL, priority 2019, dated 2026).
“Also recorded” adds a separate entry of the source. Like-named read-outs stand apart in the source and are kept apart here. Values belong to the compound of their own block, whether it stands above or below them.

Legend:
[1] = target: T1, JAK2 (Homo sapiens, UniProt O60674, I682F); experiment: Target degradation (Western Blot) in MHH-CALL-4 cells, JAK2; assay type: cell-based; conditions: 100 nM PROTAC at 24 h
T1 construct: endogenous in cells; host or cells: MHH-CALL-4
T1 sequence (O60674 whole entry I682F): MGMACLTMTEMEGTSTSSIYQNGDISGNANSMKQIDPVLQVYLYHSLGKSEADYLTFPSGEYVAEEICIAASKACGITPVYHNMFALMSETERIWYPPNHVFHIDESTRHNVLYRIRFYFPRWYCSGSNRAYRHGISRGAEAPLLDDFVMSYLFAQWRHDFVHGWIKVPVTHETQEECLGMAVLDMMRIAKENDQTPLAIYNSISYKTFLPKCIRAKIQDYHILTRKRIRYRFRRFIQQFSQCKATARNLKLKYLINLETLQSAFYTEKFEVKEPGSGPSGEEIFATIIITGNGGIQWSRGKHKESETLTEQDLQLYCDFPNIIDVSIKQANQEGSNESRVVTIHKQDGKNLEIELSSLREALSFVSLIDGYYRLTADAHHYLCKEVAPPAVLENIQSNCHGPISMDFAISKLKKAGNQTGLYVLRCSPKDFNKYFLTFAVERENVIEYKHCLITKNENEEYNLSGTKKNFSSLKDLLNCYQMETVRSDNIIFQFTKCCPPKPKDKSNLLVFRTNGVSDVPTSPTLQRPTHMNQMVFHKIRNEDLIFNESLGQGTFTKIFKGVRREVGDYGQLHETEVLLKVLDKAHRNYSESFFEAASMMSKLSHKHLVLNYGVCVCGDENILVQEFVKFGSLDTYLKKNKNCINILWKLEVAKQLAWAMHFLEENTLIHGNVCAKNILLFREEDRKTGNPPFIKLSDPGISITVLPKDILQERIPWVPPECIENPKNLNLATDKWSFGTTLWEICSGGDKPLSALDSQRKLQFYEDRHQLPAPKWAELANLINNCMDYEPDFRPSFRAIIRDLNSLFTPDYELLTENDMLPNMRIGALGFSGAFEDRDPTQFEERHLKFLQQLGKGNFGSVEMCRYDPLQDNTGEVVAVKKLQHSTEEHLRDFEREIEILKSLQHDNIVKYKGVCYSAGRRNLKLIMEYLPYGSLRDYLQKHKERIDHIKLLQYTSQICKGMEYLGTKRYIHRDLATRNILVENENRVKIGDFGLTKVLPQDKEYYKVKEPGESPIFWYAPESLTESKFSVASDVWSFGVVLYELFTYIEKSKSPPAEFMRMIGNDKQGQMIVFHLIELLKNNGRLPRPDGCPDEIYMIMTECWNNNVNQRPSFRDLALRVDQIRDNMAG

[2] = test system: MHH-CALL-4; experiment: Cytotoxicity assay (resazurin, 72 hours) in MHH-CALL-4 cells; assay type: cell-based, human; conditions: for killing of MHH-CALL-4 cells (activity in words): correlated with degradation of GSPT1 and JAK2, FIG. 7F
[3] = target: T2, IKZF1 (Homo sapiens, UniProt Q13422+Q96SW2); experiment: Target degradation (Western Blot) in MHH-CALL-4 cells, IKZF1; assay type: cell-based; conditions: 100 nM PROTAC at 24 h
T2 construct: endogenous in cells; host or cells: MHH-CALL-4
T2 sequence (Q13422 whole entry): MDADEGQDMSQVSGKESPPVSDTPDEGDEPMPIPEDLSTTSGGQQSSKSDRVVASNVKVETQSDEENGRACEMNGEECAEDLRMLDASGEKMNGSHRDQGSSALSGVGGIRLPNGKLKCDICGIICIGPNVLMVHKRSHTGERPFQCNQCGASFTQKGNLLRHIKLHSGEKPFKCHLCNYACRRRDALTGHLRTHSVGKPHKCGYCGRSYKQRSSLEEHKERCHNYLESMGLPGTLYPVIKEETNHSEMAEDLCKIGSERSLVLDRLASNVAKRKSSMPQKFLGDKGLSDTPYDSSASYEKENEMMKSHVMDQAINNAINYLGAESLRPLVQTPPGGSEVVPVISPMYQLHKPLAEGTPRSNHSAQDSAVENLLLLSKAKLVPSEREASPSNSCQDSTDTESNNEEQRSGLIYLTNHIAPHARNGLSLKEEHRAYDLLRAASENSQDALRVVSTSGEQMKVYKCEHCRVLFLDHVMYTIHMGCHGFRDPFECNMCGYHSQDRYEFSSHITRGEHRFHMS
T2 sequence (Q96SW2 whole entry): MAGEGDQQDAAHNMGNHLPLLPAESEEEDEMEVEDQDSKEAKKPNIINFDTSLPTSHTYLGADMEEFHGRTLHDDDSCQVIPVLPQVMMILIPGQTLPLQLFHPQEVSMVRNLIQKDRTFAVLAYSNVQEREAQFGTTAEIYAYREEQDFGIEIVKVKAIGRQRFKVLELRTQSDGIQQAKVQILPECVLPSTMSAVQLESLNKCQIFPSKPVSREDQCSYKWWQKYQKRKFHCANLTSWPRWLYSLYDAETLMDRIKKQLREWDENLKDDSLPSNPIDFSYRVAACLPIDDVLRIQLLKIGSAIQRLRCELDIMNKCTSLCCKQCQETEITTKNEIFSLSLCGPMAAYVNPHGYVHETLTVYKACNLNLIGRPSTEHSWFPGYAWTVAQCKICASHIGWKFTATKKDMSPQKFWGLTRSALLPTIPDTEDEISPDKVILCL
T2 sequence (Q16531 whole entry partner): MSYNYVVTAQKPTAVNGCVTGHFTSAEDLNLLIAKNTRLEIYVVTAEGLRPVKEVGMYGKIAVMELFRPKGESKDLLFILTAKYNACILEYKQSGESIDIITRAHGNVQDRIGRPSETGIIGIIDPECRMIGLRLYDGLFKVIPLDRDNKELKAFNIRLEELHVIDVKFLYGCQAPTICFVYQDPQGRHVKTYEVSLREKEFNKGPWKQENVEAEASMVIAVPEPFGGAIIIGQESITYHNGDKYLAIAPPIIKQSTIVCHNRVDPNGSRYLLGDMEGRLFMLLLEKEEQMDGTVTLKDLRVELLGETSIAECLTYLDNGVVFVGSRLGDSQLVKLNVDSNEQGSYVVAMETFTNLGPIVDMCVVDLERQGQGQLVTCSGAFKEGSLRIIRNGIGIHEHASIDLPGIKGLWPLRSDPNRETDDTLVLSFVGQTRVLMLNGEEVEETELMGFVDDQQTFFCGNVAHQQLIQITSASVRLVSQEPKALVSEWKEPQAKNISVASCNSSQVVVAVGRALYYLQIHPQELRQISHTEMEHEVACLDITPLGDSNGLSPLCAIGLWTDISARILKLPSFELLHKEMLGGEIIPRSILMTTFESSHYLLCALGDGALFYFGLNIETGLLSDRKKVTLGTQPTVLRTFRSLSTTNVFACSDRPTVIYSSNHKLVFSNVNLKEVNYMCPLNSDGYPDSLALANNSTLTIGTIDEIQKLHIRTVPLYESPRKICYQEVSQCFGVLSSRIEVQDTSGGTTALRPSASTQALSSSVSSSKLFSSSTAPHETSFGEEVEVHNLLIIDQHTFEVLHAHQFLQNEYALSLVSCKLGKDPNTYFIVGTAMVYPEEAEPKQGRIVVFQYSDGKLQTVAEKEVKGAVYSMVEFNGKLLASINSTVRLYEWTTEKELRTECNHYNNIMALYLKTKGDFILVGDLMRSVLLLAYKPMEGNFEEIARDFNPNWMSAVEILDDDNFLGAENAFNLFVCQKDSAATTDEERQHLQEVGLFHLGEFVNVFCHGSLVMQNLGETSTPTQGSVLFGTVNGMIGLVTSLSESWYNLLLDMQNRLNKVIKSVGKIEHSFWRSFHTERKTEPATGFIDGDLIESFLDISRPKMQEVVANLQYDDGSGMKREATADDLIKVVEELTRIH

[4] = test system: Human CD45+ leukemic cells from patient derived xenografts (PDX); experiment: Ex vivo cytotoxicity (MTT) in PDX leukemic cells; conditions: FIG. 6A
[5] = target: TYK2 (Homo sapiens, UniProt P29597); experiment: KdELECT Kd measurement (KINOMEscan platform), TYK2; assay type: binding; parameters: purchased Eurofins DiscoveRx; conditions: read-out: Kd to JAK family kinases, TYK2
TYK2, sequence (P29597 whole entry): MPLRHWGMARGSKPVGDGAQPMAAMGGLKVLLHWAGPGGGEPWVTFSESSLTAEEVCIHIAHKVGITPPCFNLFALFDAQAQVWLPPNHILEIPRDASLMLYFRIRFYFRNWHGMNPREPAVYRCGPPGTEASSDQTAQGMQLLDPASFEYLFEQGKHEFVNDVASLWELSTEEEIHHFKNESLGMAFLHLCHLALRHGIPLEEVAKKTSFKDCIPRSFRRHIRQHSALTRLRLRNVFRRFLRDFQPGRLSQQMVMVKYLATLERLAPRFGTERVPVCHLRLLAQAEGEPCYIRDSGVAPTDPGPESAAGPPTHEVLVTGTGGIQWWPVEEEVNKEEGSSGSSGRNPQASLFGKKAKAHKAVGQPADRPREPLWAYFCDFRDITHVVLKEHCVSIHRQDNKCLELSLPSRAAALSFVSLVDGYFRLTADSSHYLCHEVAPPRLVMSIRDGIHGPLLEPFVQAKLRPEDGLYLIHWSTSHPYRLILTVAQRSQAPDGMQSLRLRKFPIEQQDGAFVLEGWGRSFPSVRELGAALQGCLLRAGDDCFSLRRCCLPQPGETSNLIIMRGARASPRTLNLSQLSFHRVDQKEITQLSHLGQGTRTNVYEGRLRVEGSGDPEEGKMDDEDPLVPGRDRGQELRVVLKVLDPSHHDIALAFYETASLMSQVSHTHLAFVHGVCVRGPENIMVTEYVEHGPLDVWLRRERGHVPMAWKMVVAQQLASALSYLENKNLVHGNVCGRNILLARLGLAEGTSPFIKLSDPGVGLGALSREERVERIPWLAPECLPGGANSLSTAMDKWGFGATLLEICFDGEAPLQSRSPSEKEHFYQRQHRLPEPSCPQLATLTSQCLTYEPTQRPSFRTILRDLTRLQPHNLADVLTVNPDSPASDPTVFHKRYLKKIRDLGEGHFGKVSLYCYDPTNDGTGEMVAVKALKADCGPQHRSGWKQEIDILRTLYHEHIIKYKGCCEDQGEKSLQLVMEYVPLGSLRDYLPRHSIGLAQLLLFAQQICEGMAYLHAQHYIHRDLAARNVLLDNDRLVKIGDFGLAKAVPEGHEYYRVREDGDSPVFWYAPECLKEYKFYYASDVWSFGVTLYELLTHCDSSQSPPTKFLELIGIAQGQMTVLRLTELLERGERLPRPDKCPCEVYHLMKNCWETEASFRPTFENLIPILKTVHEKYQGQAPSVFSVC

[6] = Caco-2 cell permeability; assay type: in vitro ADME; conditions: human, Caco-2; A to B (Table 4); read-out: Cac2 Papp A/B
Method: Compound Caco-2 cell permeability was determined using the Transwell® 0.4 μm polycarbonate membrane 96-well as described before (Uchida, et al. (2009) J Pharmacol Toxicol Methods 59(1): 39-43). Briefly, Caco-2 cells monolayers were incubated over 2 hours at 37° C. Fractions were collected from receivers (basal side, B), and concentrations were assessed by UPLC/MS (Waters; Milford, MA). All compounds were tested in triplicates. The A→B (or B→A) apparent permeability coefficients (Papp) of each compound were calculated using the equation, Papp=dQ/dt×1/AC0, where dQ/dt equals the flux of a drug across the monolayer, A equals the total insert well surface area, and C0 is the initial concentration of substrate in the donor compartment.

[7] = target: T3, GSPT1 (Homo sapiens, UniProt P15170+Q96SW2); experiment: Target degradation (Western Blot) in MHH-CALL-4 cells, GSPT1; assay type: cell-based; conditions: 100 nM PROTAC at 24 h
T3 construct: endogenous in cells; host or cells: MHH-CALL-4
T3 sequence (P15170 whole entry): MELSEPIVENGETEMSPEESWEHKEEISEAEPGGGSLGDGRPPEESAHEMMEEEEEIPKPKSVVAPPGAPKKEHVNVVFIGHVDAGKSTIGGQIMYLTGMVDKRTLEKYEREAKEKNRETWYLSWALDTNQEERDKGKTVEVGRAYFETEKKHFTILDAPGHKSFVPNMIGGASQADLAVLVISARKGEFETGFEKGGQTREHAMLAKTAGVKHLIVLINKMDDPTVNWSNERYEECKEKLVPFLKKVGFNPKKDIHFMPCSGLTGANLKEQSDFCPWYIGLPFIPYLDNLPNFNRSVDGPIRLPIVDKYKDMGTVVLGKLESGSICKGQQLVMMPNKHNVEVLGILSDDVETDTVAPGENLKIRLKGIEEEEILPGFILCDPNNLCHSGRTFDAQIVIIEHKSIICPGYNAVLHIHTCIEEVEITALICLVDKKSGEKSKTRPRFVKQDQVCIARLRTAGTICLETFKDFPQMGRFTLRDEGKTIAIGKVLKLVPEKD
T3 sequence (Q96SW2 whole entry): as the sequence (Q96SW2 whole entry) above
T3 sequence (Q16531 whole entry partner): as the sequence (Q16531 whole entry partner) above

[8] = Homo sapiens, MHHCALL4, Table 6, starred: EC50 from partial dose response curve, read-out: MHHCALL4 EC50 from partial dose response curve
[9] = Homo sapiens, MHHCALL4, MHH-CALL-4 (Table 2), read-out: EC50 in MHH-CALL-4
[10] = Homo sapiens, MHHCALL4, MHH-CALL-4 (Table 1), read-out: EC50

- Target Degradation (Western Blot) JAK2 [1]: 1 (1 = None (<20% degradation at 24 h))
- Target Degradation (Western Blot) IKZF1 [3]: 1 (1 = None (<20% degradation at 24 h))
Structure (SMILES): CCS(=O)(=O)N1CC(CC#N)(n2cc(-c3nc(Nc4ccc(C(=O)NCCCCNc5ccc6c(c5)C(=O)N(C5CCC(=O)NC5=O)C6=O)cc4)nc4[nH]ccc34)cn2)C1 (centres unmarked) [Compound 80]
- EC50 ([2]; Homo sapiens, MHHCALL4, Table 6, no star, read-out: MHHCALL4 EC50): > 5.5 µM
- killing of MHH-CALL-4 cells (activity in words) [2]: relatively low activity

- Target Degradation (Western Blot) IKZF1 [3]: 1 (1 = None (<20% degradation at 24 h))
Structure (SMILES): CCS(=O)(=O)N1CC(CC#N)(n2cc(-c3nc(Nc4ccc(C(=O)NCCCN5CCN(c6ccc7c(c6)C(=O)N(C6CCC(=O)NC6=O)C7=O)CC5)cc4)nc4[nH]ccc34)cn2)C1 (centres unmarked) [Compound 56]
- Target Degradation (Western Blot) JAK2 [1]: 2 (2 = Medium (20-40% degradation at 24 h))
- EC50 [2, 8]: 0.562 µM
- killing of MHH-CALL-4 cells (activity in words) [2]: intermediately effective

Structure (SMILES): O=C1CCC(N2C(=O)c3ccccc3C2=O)C(=O)N1 (centres unmarked) [Thalidomide, thalidomide, reference compound]
- EC50 [2, 9]: 60 µM

Structure (SMILES): N#CC[C@H](C1CCCC1)n1cc(-c2ncnc3[nH]ccc23)cn1 [Ruxolitinib, ruxolitinib, reference compound]
- EC50 ([2]; Homo sapiens, MHHCALL4, read-out: EC50 in MHH-CALL-4): 25.8 µM
- EC50 ([2]; Homo sapiens, MHHCALL4, read-out: MHHCALL4 EC50): 25.8 µM

Structure (SMILES): CCCn1cc(-c2nc(Nc3ccc(C(=O)NCCOCCOCCOCCOCCOCCOCCNc4cccc5c4C(=O)N(C4CCCNC4=O)C5=O)cc3)nc3[nH]ccc23)cn1 (centres unmarked) [SJ000986343]
- EC50 [2, 10]: 12.8 µM

Structure (SMILES): Nc1cccc2c1C(=O)N(C1CCC(=O)NC1=O)C2=O (centres unmarked) [Pomalidomide, pomalidomide, reference compound]
- EC50 [2, 9]: 63.7 µM

Structure (SMILES): CCCn1cc(-c2nc(NCCOCCOCCOCCOCCNC(=O)CNc3cccc4c3CN(C3CCC(=O)NC3=O)C4=O)nc3[nH]ccc23)cn1 (centres unmarked) [SJ000986079, 2-((2-(2,6-dioxopiperidin-3-yl)-1-oxoisoindolin-4-yl)amino)-N-(14-((4-(1-propyl-1H-pyrazol-4-yl)-7H-pyrrolo[2,3-d]pyrimidin-2-yl)amino)-3,6,9,12-tetraoxatetradecyl)acetamide]
- EC50 [2, 10]: > 100 µM

Structure (SMILES): CCCn1cc(-c2nc(Nc3ccc(NC(=O)CCOCCOCCOCCOCCOCCNc4cccc5c4C(=O)N(C4CCC(=O)NC4=O)C5=O)cc3)nc3[nH]ccc23)cn1 (centres unmarked) [SJ000986342]
- EC50 [2, 10]: 6.89 µM

Structure (SMILES): CC(=O)Nc1cc(Oc2ccc3c(nc(Nc4ccc(F)cc4F)n3C)c2C)ccn1 [CHZ868, reference compound]
- EC50 ([2]; MHH-CALL-4 (Table 2), read-out: EC50 in MHH-CALL-4): 0.18 µM
- cytotoxicity in PDX cells ex vivo [4]: not

Structure (SMILES): CCCn1cc(-c2nc(Nc3ccc(C(=O)NCCOCCOCCOCCOCCOCCOCCNc4cccc5c4C(=O)N(C4CCC(=O)NC4=O)C5=O)cc3)nc3[nH]ccc23)cn1 (centres unmarked) [SJ000986050]
- EC50 [2, 10]: 0.72 µM

- Target Degradation (Western Blot) JAK2 [1]: 1 (1 = None (<20% degradation at 24 h))
Structure (SMILES): CCS(=O)(=O)N1CC(CC#N)(n2cc(-c3nc(Nc4ccc(C(=O)NCCCCNc5cccc6c5C(=O)N(C5CCC(=O)N(C)C5=O)C6=O)cc4)nc4[nH]ccc34)cn2)C1 (centres unmarked) [Compound 61]
- EC50 [2, 8]: 0.0515 µM
- killing of MHH-CALL-4 cells (activity in words) [2]: intermediately effective
- Target Degradation (Western Blot) IKZF1 [3]: 2 (2 = Medium (20-40% degradation at 24 h))

Structure (SMILES): CCCn1cc(-c2nc(NCCOCCOCCOCCOCCOCCOCCNC(=O)CNc3cccc4c3CN(C3CCC(=O)NC3=O)C4=O)nc3[nH]ccc23)cn1 (centres unmarked) [SJ000986078, 2-((2-(2,6-dioxopiperidin-3-yl)-1-oxoisoindolin-4-yl)amino)-N-(20-((4-(1-propyl-1H-pyrazol-4-yl)-7H-pyrrolo[2,3-d]pyrimidin-2-yl)amino)-3,6,9,12,15,18-hexaoxaicosyl)acetamide]
- EC50 [2, 10]: > 100 µM

Structure (SMILES): CCS(=O)(=O)N1CC(CC#N)(n2cc(-c3ncnc4[nH]ccc34)cn2)C1 [Baricitinib, baricitinib, reference compound]
- Kd [5]: 1.3 nM

Structure (SMILES): CCCn1cc(-c2nc(Nc3ccc(C(=O)NCCOCCOCCOCCOCCNc4cccc5c4C(=O)N(C4CCC(=O)NC4=O)C5=O)cc3)nc3[nH]ccc23)cn1 (centres unmarked) [SJ000986049]
- EC50 [2, 10]: 2.3 µM

Structure (SMILES): Nc1cccc2c1CN(C1CCC(=O)NC1=O)C2=O (centres unmarked) [Lenalidomide, lenalidomide, reference compound]
- EC50 [2, 9]: 34.5 µM

Structure (SMILES): CCS(=O)(=O)N1CC(CC#N)(n2cc(-c3nc(Nc4ccc(C(=O)NCCN5CCN(c6ccc7c(c6)C(=O)N(C6CCC(=O)NC6=O)C7=O)CC5)cc4)nc4[nH]ccc34)cn2)C1 (centres unmarked) [Compound 8]
- killing of MHH-CALL-4 cells (activity in words) [2]: intermediately effective; also recorded: reduced activity
- Papp A→B at 2 h [6]: 0.002 ×10⁻⁶ cm/s

Structure (SMILES): CCCn1cc(-c2nc(Nc3ccc(C(=O)NCCOCCOCCNc4cccc5c4C(=O)N(C4CCC(=O)NC4=O)C5=O)cc3)nc3[nH]ccc23)cn1 (centres unmarked) [SJ000986339]
- EC50 [2, 10]: > 100 µM

Structure (SMILES): CCCn1cc(-c2nc(Nc3ccc(NC(=O)CCOCCOCCOCCOCCOCCOCCNc4cccc5c4C(=O)N(C4CCC(=O)NC4=O)C5=O)cc3)nc3[nH]ccc23)cn1 (centres unmarked) [SJ000986341]
- EC50 [2, 10]: 5.83 µM

- Target Degradation (Western Blot) JAK2 [1]: 1 (1 = None (<20% degradation at 24 h))
- Target Degradation (Western Blot) IKZF1 [3]: 1 (1 = None (<20% degradation at 24 h))
Structure (SMILES): CCS(=O)(=O)N1CC(CC#N)(n2cc(-c3nc(Nc4ccc(C(=O)NCCCNC(=O)COc5cccc6c5C(=O)N(C5CCC(=O)NC5=O)C6=O)cc4)nc4[nH]ccc34)cn2)C1 (centres unmarked) [Compound 59]
- EC50 [2, 8]: 4.19 µM
- killing of MHH-CALL-4 cells (activity in words) [2]: relatively low activity

- Target Degradation (Western Blot) JAK2 [1]: 1 (1 = None (<20% degradation at 24 h))
Structure (SMILES): CCS(=O)(=O)N1CC(CC#N)(n2cc(-c3nc(Nc4ccc(C(=O)NCCCNc5ccc6c(c5)C(=O)N(C5CCC(=O)NC5=O)C6=O)cc4)nc4[nH]ccc34)cn2)C1 (centres unmarked) [Compound 53]
- EC50 [2, 8]: 0.0346 µM
- killing of MHH-CALL-4 cells (activity in words) [2]: intermediately effective
- Target Degradation (Western Blot) GSPT1 [7]: 3 (3 = Strong (>60% degradation at 24 h))
